Data as given in patent US5455229A, “Method for minimizing and containing ischemic and reperfusion injury” (Eli Lilly and Company, priority 1992, dated 1995).

Key:
dog = conditions: Diaz et al., Am. J. Cardiol. 40: 541-549, 1977; cited from earlier work
beagle dogs = test: In vivo assay: myocardial infarct size following coronary artery occlusion (1 hr) and reperfusion (5 hr) in anesthetized dogs; set-up: species or system dog; conditions: dogs infused with aprotinin, control dogs 37.9±5.4%, P<0.05
Method: Adult male beagle dogs weighing approximately 9-14 kg were anesthetized with pentobarbital sodium (30 mg/kg, i.v.). The tracheae were intubated, and the dogs were ventilated with room air delivered from a Harvard respirator (ventilation rate of 16 cycles/min, tidal volume, 25 ml/kg). Body temperature was maintained at 37-°38° C. with a heating pad. Catheters were placed in the left femoral artery and vein for measurement of phasic arterial blood pressure (Starham transducer, P23ID) and i.v. infusion of drug solutions, respectively. Mean arterial blood pressure was calculated as diastolic blood pressure plus 1/3 pulse pressure. Cardiac rate was monitored by a cardiotachometer that was triggered by the systolic pressure pulse, while the pressure rate product was monitored as an index of myocardial oxygen demand. […] Directly measured parameters were recorded continuously on a multichannel oscillograph (Beckman Instruments,Inc., Fullerton Calif.; model R611).
A left thoracotomy was performed at the fifth intercostal space, the heart was suspended in a pericardial cradle, and the left circumflex coronary artery (LCX) was isolated distal to its atrial branch and proximal to any major ventricular branches. Baseline circumflex coronary artery blood flow was measured using a calibrated flowprobe (Carolina Medical Electronics, 6 mm I.C.) connected to a Carolina flowmeter (model FM501). […]

## aprotinin [reference compound]
dog
  myocardial ischemic injury associated with coronary artery occlusion: has been shown to limit myocardial ischemic injury
Beagle dogs
  infarct size, % of the left ventricular mass at risk of necrosis: 24.8±2.4%
